The record followed here is ChEMBL document CHEMBL4417631, “Oral peptide inhibitors of interleukin-23 receptor and their use to treat inflammatory bowel diseases” (2017).

Where a SMILES comes first, the peptide text is derived from it. Some results are limits rather than exact numbers.

The assay has as its target T1, Interleukin-23 receptor (Homo sapiens, UniProt Q5VWK5).
T1 sequence (Q5VWK5 whole entry): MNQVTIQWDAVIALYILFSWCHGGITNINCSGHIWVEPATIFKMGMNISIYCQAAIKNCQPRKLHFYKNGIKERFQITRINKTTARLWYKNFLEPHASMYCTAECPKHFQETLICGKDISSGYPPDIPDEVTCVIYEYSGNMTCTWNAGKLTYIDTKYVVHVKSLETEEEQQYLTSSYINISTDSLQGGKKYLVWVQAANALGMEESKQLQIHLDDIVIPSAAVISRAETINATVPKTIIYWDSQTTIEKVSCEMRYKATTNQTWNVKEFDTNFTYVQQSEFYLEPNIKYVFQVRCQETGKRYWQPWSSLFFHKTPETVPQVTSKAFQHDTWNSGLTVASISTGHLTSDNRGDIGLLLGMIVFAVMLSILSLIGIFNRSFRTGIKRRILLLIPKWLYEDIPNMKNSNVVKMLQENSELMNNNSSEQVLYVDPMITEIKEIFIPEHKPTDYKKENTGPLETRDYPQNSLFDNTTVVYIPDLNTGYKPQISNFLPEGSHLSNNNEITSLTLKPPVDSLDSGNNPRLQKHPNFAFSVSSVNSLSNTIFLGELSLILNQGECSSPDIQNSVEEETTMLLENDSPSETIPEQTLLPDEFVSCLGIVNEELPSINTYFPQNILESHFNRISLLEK
Briefly: Inhibition of interleukin-23 binding to human interleukin-23 receptor incubated for 2 hrs by competitive binding ELISA.
In turn, `CC(=O)N[C@@H](CS)C(=O)N[C@@H](C)C(=O)N[C@@H](CC(=O)O)C(=O)N[C@@H](Cc1c[nH]c2ccccc12)C(=O)N[C@H](C(=O)N[C@@H](CS)C(=O)N[C@@H](Cc1ccc(O)cc1)C(=O)N[C@@H](Cc1c[nH]c2ccccc12)C(=O)N[C@@H](Cc1cnc[nH]1)C(=O)N[C@H](C(=O)N[C@@H](Cc1ccccc1)C(=O)NCC(=O)O)[C@@H](C)O)C(C)C` had an IC50 of less than 500 nM. Consider `CC(C)[C@H](NC(=O)[C@H](Cc1c[nH]c2ccccc12)NC(=O)[C@H](CC(=O)O)NC(=O)[C@H](C)NC(=O)[C@@H](N)CS)C(=O)N[C@@H](CS)C(=O)N[C@@H](Cc1ccc(O)cc1)C(=O)N[C@@H](Cc1cccc2ccccc12)C(=O)N(C)[C@@H](Cc1cnc[nH]1)C(=O)N[C@H](C(=O)N[C@@H](Cc1ccccc1)C(=O)O)[C@@H](C)O`, for which the IC50 was more than 1000 nM.

The compound `CC(=O)N[C@H](CCCCN)C(=O)NCCC(=O)N[C@@H](CS)C(=O)N[C@@H](C)C(=O)N[C@@H](CC(=O)O)C(=O)N[C@@H](Cc1c[nH]c2ccccc12)C(=O)N[C@H](C(=O)N[C@@H](CS)C(=O)N[C@@H](Cc1ccc(O)cc1)C(=O)N[C@@H](Cc1c[nH]c2ccccc12)C(=O)N[C@@H](Cc1cnc[nH]1)C(=O)N[C@H](C(=O)N[C@@H](Cc1ccccc1)C(=O)NCC(=O)O)[C@@H](C)O)C(C)C` came in with an IC50 of more than 1000 nM. The figure for `CC(=O)N[C@@H](CS)C(=O)N[C@@H](CCC(N)=O)C(=O)N[C@H](C(=O)N[C@@H](Cc1c[nH]c2ccccc12)C(=O)N[C@@H](CCC(N)=O)C(=O)N[C@@H](CS)C(=O)N[C@@H](Cc1ccc(O)cc1)C(=O)N[C@@H](Cc1c[nH]c2ccccc12)C(=O)N[C@@H](CCCNC(=N)N)C(=O)N[C@@H](CCCN)C(=O)N[C@@H](CC(N)=O)C(=O)NCC(=O)NCCOCC(=O)N[C@H](CCCCN)C(N)=O)[C@@H](C)O` is less than 500 nM; for `CC(=O)N[C@@H](CS)C(=O)N[C@@H](CCC(=O)O)C(=O)N[C@@H](CC(=O)O)C(=O)N[C@@H](Cc1c[nH]c2ccccc12)C(=O)N[C@@H](CCCCN)C(=O)N[C@@H](CS)C(=O)N[C@@H](Cc1ccc(O)cc1)C(=O)N[C@@H](Cc1c[nH]c2ccccc12)C(=O)N[C@@H](Cc1cnc[nH]1)C(=O)N[C@@H](CCCCN)C(=O)N[C@@H](Cc1ccc(O)cc1)C(=O)NCC(N)=O` (Ac-CEDWKCYWHKYG-NH2) it is less than 500 nM; for `CC(=O)N[C@@H](CS)C(=O)N[C@@H](C)C(=O)N[C@@H](CC(=O)O)C(=O)N[C@@H](Cc1c[nH]c2ccccc12)C(=O)N[C@H](C(=O)N[C@@H](CS)C(=O)N[C@@H](Cc1ccc(O)cc1)C(=O)N[C@@H](Cc1cccc2ccccc12)C(=O)N(C)[C@@H](Cc1cnc[nH]1)C(=O)N[C@H](C)C(=O)N[C@@H](Cc1ccccc1)C(=O)NC(C)(C)C(N)=O)C(C)C` it is more than 1000 nM. `CC(=O)N[C@@H](CS)C(=O)N[C@@H](CCCNC(=N)N)C(=O)N[C@@H](CC(=O)O)C(=O)N[C@@H](Cc1c[nH]c2ccccc12)C(=O)N[C@@H](CCC(N)=O)C(=O)N[C@@H](CS)C(=O)N[C@@H](Cc1ccc(O)cc1)C(=O)N[C@@H](Cc1c[nH]c2ccccc12)C(=O)N[C@H](CCCNC(=N)N)C(=O)N[C@H](CCCCN)C(=O)N[C@@H](Cc1ccccc1)C(=O)NCC(=O)NCCOCCC(=O)N[C@H](CCCCN)C(N)=O` returned an IC50 of more than 1000 nM.

`COc1ccc(C[C@H](NC(=O)[C@@H](NC(=O)[C@H](CCC(N)=O)NC(=O)[C@H](Cc2c[nH]c3ccccc23)NC(=O)[C@@H](NC(=O)[C@H](CCC(N)=O)NC(=O)[C@@H](NC(=O)c2cc(O)c(O)c(O)c2)C(C)(C)S)[C@@H](C)O)C(C)(C)S)C(=O)N[C@@H](Cc2ccc3ccccc3c2)C(=O)N[C@@](C)(CCCCN)C(=O)N[C@@H](CCCCNC(C)=O)C(=O)N[C@@H](CC(N)=O)C(=O)NCC(N)=O)cc1`: the IC50 is 1000 to 10000 nM. In the case of `CC(C)[C@H](NC(=O)[C@H](Cc1ccc2ccccc2c1)NC(=O)[C@H](CC(=O)O)NC(=O)[C@H](C)NC(=O)[C@@H](N)CS)C(=O)N[C@@H](CS)C(=O)N[C@@H](Cc1ccc(O)cc1)C(=O)N[C@@H](Cc1c[nH]c2ccccc12)C(=O)N[C@@H](Cc1cnc[nH]1)C(=O)N[C@H](C(=O)N[C@@H](Cc1ccccc1)C(=O)NCC(N)=O)[C@@H](C)O`, the IC50 is more than 1000 nM.
